In PubChem BioAssay (NCI):
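48-hour exposure; five concentrations; linearly interpolated endpoints. GI50 marks 50% less growth. TGI is the concentration that stops growth completely.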

How the values were obtained:
Assay in all cases: NCI tumour cell line growth inhibition, 48 h
[1] = test system: A498 renal
[2] = test system: SK-MEL-2 melanoma
[3] = test system: MALME-3M melanoma
[4] = test system: SW-620 colon
[5] = test system: KM12 colon
[6] = test system: 786-0 renal
[7] = test system: UACC-62 melanoma
[8] = test system: OVCAR-8 ovarian
[9] = test system: HCT-116 colon
[10] = test system: HOP-92 NSCLC

| Structure (SMILES) | GI50 [1] | TGI [1] | GI50 [2] | TGI [2] | GI50 [3] | TGI [3] | GI50 [4] | TGI [4] | GI50 [5] | TGI [5] | GI50 [6] | TGI [6] | GI50 [7] | TGI [7] | GI50 [8] | TGI [8] | GI50 [9] | TGI [9] | GI50 [10] | TGI [10] |
| --- | --- | --- | --- | --- | --- | --- | --- | --- | --- | --- | --- | --- | --- | --- | --- | --- | --- | --- | --- | --- |
| COc1ccc(-c2ccc(-c3ccc(C(=N)N)o3)o2)cc1 | 1.76 µM | 7.48 µM | 5.71 µM | 21.7 µM | 3.97 µM | 19.1 µM | 0.532 µM | 2.43 µM | 0.585 µM | 6.73 µM | 2.22 µM | 5.64 µM | 1.29 µM | 3.05 µM | 3.19 µM | 11.4 µM | 1.07 µM | 3.01 µM | – | – |
| O=C1c2ccccc2-c2c1c1ccccc1c(=O)n2CCCn1ccnc1 | 2.74 µM | 14.1 µM | 7.78 µM | > 100 µM | 2.45 µM | 5.75 µM | 0.949 µM | 30.2 µM | 1.94 µM | 5.95 µM | 1.74 µM | 7.72 µM | 0.791 µM | 2.29 µM | 0.87 µM | 2.39 µM | 1.4 µM | 13.8 µM | 1.83 µM | 6.45 µM |
| CCNC(=O)O[C@H]1CN[C@H](C#Cc2cc3ncnc(Nc4ccc(OCc5cccc(F)c5)c(Cl)c4)c3s2)C1 | 1.7 µM | 11.7 µM | 6.1 µM | 24.9 µM | 3.99 µM | 11.7 µM | 12 µM | > 25 µM | 6.59 µM | > 23.1 µM | 5.69 µM | > 16.6 µM | 17 µM | > 25 µM | 6.25 µM | > 25 µM | 7.43 µM | > 25 µM | 0.83 µM | 11.4 µM |
| Cc1cnc(C(=O)Nc2nc3ccc(S(=O)(=O)Nc4ccc(C5(C(F)(F)F)CC5)cc4)cc3[nH]2)cn1 | 0.228 µM | 0.882 µM | 0.784 µM | 20.1 µM | 0.345 µM | 8.65 µM | 0.369 µM | 5.92 µM | 0.309 µM | 13 µM | 0.484 µM | 6.65 µM | 0.372 µM | 6.99 µM | 0.722 µM | 23.4 µM | 0.452 µM | 10.5 µM | 0.387 µM | 6.46 µM |
| OCC#Cc1ccccc1C#CCCCCCC#Cc1ccccc1C#CCO | 24.1 µM | 44.8 µM | – | – | 20.7 µM | 52.6 µM | 21.9 µM | 43.3 µM | 18.8 µM | 49.4 µM | 16.8 µM | 32.3 µM | 17.9 µM | 32.3 µM | 17.1 µM | 42.1 µM | 12.7 µM | 25.2 µM | 17.6 µM | 33.3 µM |
| CC12CCC(Br)C(C)(C)C1CC=C1C(=O)OCC1O2 (stereo not given) | – | 24.7 µM | – | 28.6 µM | – | – | – | 32.8 µM | – | 32.3 µM | – | > 48.6 µM | – | 25.7 µM | – | 34.9 µM | – | > 44.5 µM | – | 34.1 µM |
| C=C1C(=O)O[C@H]2[C@H]1CC/C(Cn1cc(-c3ccccc3C(F)(F)F)nn1)=C\CC[C@@]1(C)O[C@@H]21 | 3.86 µM | 15.9 µM | 2.45 µM | 5.78 µM | 1.7 µM | 3.56 µM | 1.24 µM | 3.33 µM | 5.88 µM | 19.2 µM | 1.84 µM | 3.92 µM | – | – | 2.23 µM | 6.97 µM | 1.26 µM | 2.74 µM | 1.48 µM | 3.47 µM |
| Oc1ccc2oc3ncc(Br)c(-c4ccccc4)c3c2c1 | – | – | > 100 µM | > 100 µM | – | – | > 100 µM | > 100 µM | > 100 µM | > 100 µM | > 100 µM | > 100 µM | – | – | > 100 µM | > 100 µM | > 100 µM | > 100 µM | > 100 µM | > 100 µM |
| COc1ccccc1NC(=O)CC(=O)N/N=C/c1ccc(N(CCC#N)S(=O)(=O)c2ccccc2)cc1 | – | – | – | > 100 µM | – | > 100 µM | – | > 100 µM | – | > 100 µM | – | > 100 µM | – | > 100 µM | – | > 100 µM | – | > 100 µM | – | > 100 µM |
| COc1cccc(/C=N/C(/N=C/c2cccc(OC)c2O)c2cccc(OC)c2O)c1O | – | – | – | 43.2 µM | – | – | – | > 100 µM | – | 76.7 µM | – | > 100 µM | – | 59.8 µM | – | 47.9 µM | – | > 100 µM | – | > 100 µM |
| O=c1c(-c2ccccc2)coc2cc(OC/C(=N/O)c3ccccc3)ccc12 | 16.5 µM | 33.4 µM | – | – | 10.4 µM | 28.3 µM | 20.2 µM | 64.8 µM | 20.2 µM | 48.3 µM | 25.4 µM | 50.4 µM | 15.2 µM | 31.4 µM | 17.3 µM | 50.8 µM | 11.2 µM | 68.6 µM | 15.3 µM | 47.4 µM |
| COc1cccc(NC(=O)/C(Cc2nc3ccccc3nc2C)=N/NC(=O)C[n+]2ccccc2)c1 | – | > 100 µM | – | > 100 µM | – | > 100 µM | – | 25.6 µM | – | > 100 µM | – | > 100 µM | – | > 100 µM | – | > 100 µM | – | > 100 µM | – | – |
| Cc1ccc(O)c(NC(=O)c2ccc(CNc3ccnc(C(F)(F)F)c3)cc2)c1 | 14.3 µM | 37.6 µM | – | – | 2.53 µM | 22.1 µM | 8.7 µM | 42.4 µM | 4.75 µM | 24.3 µM | 5.2 µM | 47.7 µM | 1.07 µM | 13.4 µM | 15.9 µM | > 100 µM | 13.7 µM | 37.4 µM | 5.11 µM | 29.8 µM |
| COc1cc2c(cc1OC)/C(=C\c1ccccc1N)C(=O)OC2 | – | – | – | 26.4 µM | – | 29.1 µM | – | 13.9 µM | – | 31.3 µM | – | 9.96 µM | – | 32.2 µM | – | – | – | – | – | 27.6 µM |
| CC(=O)OCC1OC(n2c(-c3ccc(C)cc3)cc(-c3ccccc3)c(C#N)c2=O)C(OC(C)=O)C(OC(C)=O)C1OC(C)=O (stereo not given) | – | – | – | > 100 µM | – | > 100 µM | – | > 100 µM | – | > 100 µM | – | > 100 µM | – | > 100 µM | – | > 100 µM | – | > 100 µM | – | > 100 µM |
